# Reference: patent publication EP2253620B1, “SUBSTITUTED 3-CYANOQUINOLINES AS PROTEIN TYROSINE KINASES INHIBITORS” (Wyeth Holdings LLC, priority 1998, dated 2000)
# Experiments:
# MDAMB435 = assay: Inhibition of Cancer Cell Growth as Measured by Cell Number; format: cell-based, Human; conditions: 48 hours exposure, Sulforhodamine B; for IC50: Homo sapiens, MDA-MB-435
# Procedure: (§1) Inhibition of Cancer Cell Growth as Measured bv Cell Number
# (§2) Human tumor cell lines were plated in 96-well plates (250 µl/well, 1-6 x 10^4 cells/ml) in RPMI 1640 medium, containing 5% FBS (Fetal Bovine Serum). […] After 48 hours exposure to test compounds, cells were fixed with trichloroacetic acid, and stained with Sulforhodamine B. After washing with trichloroacetic acid, bound dye was solubilized in 10 mM Tris base and optical density was determined using plate reader. Under conditions of the assay the optical density is proportional to the number of cells in the well. […] The test procedure is described in details by Philip Skehan et. al, J.Natl. Canc. Inst., 82, 1107-1112 (1990). […] Information about some of the cell lines used in these test procedures is available from the American Type Tissue Collection: Cell Lines and Hybridomas, 1994 Reference Guide, 8th Edition.
# SW620 = assay: as above; format: cell-based, Human; conditions: 48 hours exposure, Sulforhodamine B; for IC50: Homo sapiens, SW-620
# Procedure: as §1, §2
# A431 = assay: as above; format: cell-based, Human; conditions: 48 hours exposure, Sulforhodamine B; for IC50: Homo sapiens, A-431
# Procedure: as §1, §2
# SKBR3 = assay: as above; format: cell-based, Human; conditions: 48 hours exposure, Sulforhodamine B; for IC50: Homo sapiens, SK-BR-3
# Procedure: as §1, §2
# 3T3 = assay: as above; format: cell-based; conditions: 48 hours exposure, Sulforhodamine B; for IC50: Mus musculus, NIH3T3
# Procedure: as §1, §2
# Her2/3T3 = assay: as above; format: cell-based; conditions: 48 hours exposure, Sulforhodamine B
# Procedure: as §1, §2
# [1] = test system: Human Epidermoid Tumors (A431); assay: In Vivo Inhibition of the Growth of Human Epidermoid Tumors (A431) in mice; conditions: for Relative Tumor Growth Day 7 / % T/C Day 7 / Relative Tumor Growth Day 14 / % T/C Day 14 / Relative Tumor Growth Day 20 / % T/C Day 20 / Relative Tumor Growth Day 28 / % T/C Day 28 / S/T (# of Survivors/# of Treated) / Relative Tumor Growth Day 21 / % T/C Day 21: days 1 through 10; for % T/C Day 7 / % T/C Day 14 / % T/C Day 20 / % T/C Day 28 / % T/C Day 21: * = p < 0.01; for S/T (# of Survivors/# of Treated): Day +28 post tumor staging
# Procedure: In Vivo Inhibition of the Growth of Human Epidermoid Tumors (A431)
# BALB/c nu/nu female mice (Charles River, Wilmington, MA) were used in the in vivo standard pharmacological test procedures. Human epidermoid carcinoma cells A-431 (American Type Culture Collection, Rockville, Maryland # CRL-155) were grown in vitro as described above. A unit of 5 X 10^6 cells were injected SC into mice. […] Control animals received no drug. […] […] The %T/C (Tumor/Control) is determined by dividing the relative tumor growth of the treated group by the relative tumor growth of the placebo group and multiplying by 100.
# [2] = target: T1, epidermal growth factor receptor kinase (Homo sapiens, UniProt P00533); assay: Inhibition of Epidermal Growth Factor Receptor Kinase (EGF-R) using recombinant enzyme; format: biochemical; conditions: averages of the individual determinations
# T1 construct: containing the EGFR cDNA encoding amino acids 645 - 1186 preceded by Met-Ala-(His)6; made in house; host or cells: Sf9 insect cells, recombinant baculovirus vHcEGFR52
# T1 sequence (P00533 669-1210): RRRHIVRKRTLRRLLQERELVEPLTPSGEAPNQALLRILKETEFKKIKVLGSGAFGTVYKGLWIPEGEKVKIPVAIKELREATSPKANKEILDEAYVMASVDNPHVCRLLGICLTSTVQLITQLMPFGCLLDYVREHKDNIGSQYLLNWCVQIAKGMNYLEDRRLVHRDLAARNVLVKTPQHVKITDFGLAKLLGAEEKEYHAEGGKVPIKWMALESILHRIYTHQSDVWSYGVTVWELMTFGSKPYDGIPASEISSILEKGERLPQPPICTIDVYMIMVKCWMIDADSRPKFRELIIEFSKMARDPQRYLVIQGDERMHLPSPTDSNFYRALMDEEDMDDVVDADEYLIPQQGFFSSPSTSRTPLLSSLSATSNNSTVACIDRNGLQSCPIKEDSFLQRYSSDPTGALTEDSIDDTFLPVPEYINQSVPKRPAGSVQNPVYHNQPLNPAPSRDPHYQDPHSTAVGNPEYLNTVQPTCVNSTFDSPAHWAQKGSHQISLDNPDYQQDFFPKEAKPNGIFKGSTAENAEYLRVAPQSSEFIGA
# Procedure: Representative test compounds were evaluated for their ability to inhibit the phosphorylation of the tyrosine residue of a peptide substrate catalyzed by the enzyme epidermal growth factor receptor kinase. […] The enzyme used in this assay is the His-tagged cytoplasmic domain of EGFR. A recombinant baculovirus (vHcEGFR52) was constructed containing the EGFR cDNA encoding amino acids 645 - 1186 preceded by Met-Ala-(His)6. Sf9 cells in 100 mm plates were infected at an moi of 10 pfu/cell and cells were harvested 48 h post infection. A cytoplasmic extract was prepared using 1% Triton X-100 and applied to Ni-NTA column. After washing the column with 20 mM imidazole, HcEGFR was eluted with 250 mM imidazole (in 50 mM Na2HPO4, pH 8.0, 300 mM NaCl). Fractions collected were dialyzed against 10 mM HEPES, pH 7.0, 50 mM NaCl, 10% glycerol, 1ug/mL antipain and leupeptin and 0.1 mM Pefabloc SC. The protein was frozen in dry ice/methanol and stored -70°C.
# Test compounds were made into 10 mg/mL stock solutions in 100% dimethylsulfoxide (DMSO). Prior to experiment, stock solutions were diluted to 500 uM with 100% DMSO and then serially diluted to the desired concentration with HEPES buffer (30 mM HEPES pH 7.4).
# For the enzyme reaction, 10 µL of each inhibitor (at various concentrations) were added to each well of a 96-well plate. To this was added 3 µL of enzyme (1:10 dilution in 10mM HEPES, pH 7.4 for final conc. of 1:120). This was allowed to sit for 10 min on ice and was followed by the addition of 5 µl peptide (80 µM final conc.), 10 µl of 4X Buffer (Table A), 0.25 µL ^33P-ATP and 12 µL H2O. The reaction was allowed to run for 90 min at room temperature and was followed by spotting the entire volume on to precut P81 filter papers. The filter discs were washed 2X with 0.5% phosphoric acid and radioactivity was measured using a liquid scintillation counter.
# The % inhibition of the test compound was determined for at least three different concentrations and the IC50 value was evaluated from the dose response curve. […] CPM(control) is in units of counts per minute and was a number expressing the amount of radiolabled ATP (g-^33P) incorporated into the RR-SRC peptide substrate by the enzyme after 90 minutes at room temperature in the absence of test compound as measured by liquid scintillation counting. The CPM values were corrected for the background counts produced by ATP in the absence of the enzymatic reaction. The IC50 values in TABLE 1 are averages of the individual determinations.
smiles,measurement,setting,value
"COc1cc2ncc(C#N)c(Nc3ccc(F)c(Cl)c3)c2cc1NC(=O)C=CCN1CCC2(CC1)OCCO2 [Example 92, 4-(1,4-Dioxa-8-aza-spiror[4.5]dec-8-yl)-but-2-enoic acid [4-(3-chloro-4-fluoro-phenylamino)-3-cvano-7-methox-quinolin-6-yl]-amide]",IC50 MDAMB435,MDAMB435,3.32 µg/mL
same,IC50 SW620,SW620,2.51 µg/mL
same,IC50 A431,A431,0.283 µg/mL
same,IC50 SKBR3,SKBR3,0.188 µg/mL
same,IC50 3T3,3T3,2.79 µg/mL
same,IC50 Her2/3T3,Her2/3T3,0.35 µg/mL
same,Relative Tumor Growth Day 7,"[1]; Table 4, 10 mg/kg/dose PO",3.94
same,% T/C Day 7,"[1]; Table 4, 10 mg/kg/dose PO",72%
same,Relative Tumor Growth Day 14,"[1]; Table 4, 10 mg/kg/dose PO",10.41
same,% T/C Day 14,"[1]; Table 4, 10 mg/kg/dose PO",100%
same,Relative Tumor Growth Day 20,"[1]; Table 4, 10 mg/kg/dose PO",14.76
same,% T/C Day 20,"[1]; Table 4, 10 mg/kg/dose PO",119%
same,Relative Tumor Growth Day 28,"[1]; Table 4, 10 mg/kg/dose PO",22.51
same,% T/C Day 28,"[1]; Table 4, 10 mg/kg/dose PO",159%
same,S/T (# of Survivors/# of Treated),"[1]; Table 4, 10 mg/kg/dose PO",5/5
same,Relative Tumor Growth Day 7,"[1]; Table 4, 40 mg/kg/dose PO",1.49
same,% T/C Day 7,"[1]; Table 4, 40 mg/kg/dose PO",27* %
same,Relative Tumor Growth Day 14,"[1]; Table 4, 40 mg/kg/dose PO",1.58
same,% T/C Day 14,"[1]; Table 4, 40 mg/kg/dose PO",15* %
same,Relative Tumor Growth Day 20,"[1]; Table 4, 40 mg/kg/dose PO",2.60
same,% T/C Day 20,"[1]; Table 4, 40 mg/kg/dose PO",21* %
same,Relative Tumor Growth Day 28,"[1]; Table 4, 40 mg/kg/dose PO",6.22
same,% T/C Day 28,"[1]; Table 4, 40 mg/kg/dose PO",44%
same,S/T (# of Survivors/# of Treated),"[1]; Table 4, 40 mg/kg/dose PO",5/5
same,inhibition of tumor growth in vivo,[1]; given orally at 40 mg/Kg,effective inhibitor of tumor growth in vivo
"COC[C@@H]1CCCN1CC=CC(=O)Nc1cc2c(Nc3ccc(F)c(Cl)c3)c(C#N)cnc2cc1OC.Cl.Cl [Example 90, (S)-4-(2-Methoxymethyl-pyrrolidin-1-yl)-but-2-enoic acid [4-(3-chloro-4-fluoro-phenylamino)-3-cyano-7-methoxy-quinolin-6-yl]-amide dihydrochloride]",IC50,MDAMB435,1.74 µg/mL
same,IC50,SW620,1.24 µg/mL
same,IC50,A431,0.234 µg/mL
same,IC50,SKBR3,0.148 µg/mL
same,IC50,3T3,2.1 µg/mL
same,IC50,Her2/3T3,0.329 µg/mL
"COc1cc2ncc(C#N)c(Nc3ccc(F)c(Cl)c3)c2cc1NC(=O)C=CCN1CCCC(CO)C1.Cl (stereo not shown) [Example 91, 4-(3-Hydroxymethyl-piperidin-1-yl)-but-2-enoic acid [4-(3-chloro-4-fluoro-phenylamino)-3-cyano-7-methoxy-quinolin-6-yl]-amide hydrochloride]",IC50,[2],15 nM
same,IC50,MDAMB435,1.83 µg/mL
same,IC50,SW620,1.73 µg/mL
same,IC50,A431,0.232 µg/mL
same,IC50,SKBR3,0.181 µg/mL
same,IC50,3T3,2.87 µg/mL
same,IC50,Her2/3T3,0.375 µg/mL
"COCCN(C)CC=CC(=O)Nc1cc2c(Nc3ccc(F)c(Cl)c3)c(C#N)cnc2cc1OC.Cl.Cl [Example 89, 4-[(2-Methoxy-ethyl)-methyl-amino]-but-2-enoic acid [4-(3-chloro-4-fluoro-phenylamino)-3-cyano-7-methoxy-quinolin-6-yl]-amide dihydrochloride]",IC50,[2],10 nM
same,IC50,MDAMB435,2.07 µg/mL
same,IC50,SW620,1.53 µg/mL
same,IC50,A431,0.245 µg/mL
same,IC50,SKBR3,0.107 µg/mL
same,IC50,3T3,2.04 µg/mL
same,IC50,Her2/3T3,0.192 µg/mL
same,Relative Tumor Growth Day 7,"[1]; Table 5, 10 mg/kg/dose PO",2.09
same,% T/C Day 7,"[1]; Table 5, 10 mg/kg/dose PO",50* %
same,Relative Tumor Growth Day 14,"[1]; Table 5, 10 mg/kg/dose PO",3.37
same,% T/C Day 14,"[1]; Table 5, 10 mg/kg/dose PO",32* %
same,Relative Tumor Growth Day 21,"[1]; Table 5, 10 mg/kg/dose PO",5.76
same,% T/C Day 21,"[1]; Table 5, 10 mg/kg/dose PO",38* %
same,Relative Tumor Growth Day 28,"[1]; Table 5, 10 mg/kg/dose PO",7.24
same,% T/C Day 28,"[1]; Table 5, 10 mg/kg/dose PO",26* %
same,S/T (# of Survivors/# of Treated),"[1]; Table 5, 10 mg/kg/dose PO",4/5
same,Relative Tumor Growth Day 7,"[1]; Table 5, 40 mg/kg/dose PO",0.49
same,% T/C Day 7,"[1]; Table 5, 40 mg/kg/dose PO",11* %
same,Relative Tumor Growth Day 14,"[1]; Table 5, 40 mg/kg/dose PO",0.58
same,% T/C Day 14,"[1]; Table 5, 40 mg/kg/dose PO",6* %
same,Relative Tumor Growth Day 21,"[1]; Table 5, 40 mg/kg/dose PO",3.11
same,% T/C Day 21,"[1]; Table 5, 40 mg/kg/dose PO",21* %
same,Relative Tumor Growth Day 28,"[1]; Table 5, 40 mg/kg/dose PO",7.20
same,% T/C Day 28,"[1]; Table 5, 40 mg/kg/dose PO",26* %
same,S/T (# of Survivors/# of Treated),"[1]; Table 5, 40 mg/kg/dose PO",5/5
same,inhibition of tumor growth in vivo,[1]; given orally at 40 mg/Kg and 10 mg/Kg,effective inhibitor of tumor growth in vivo
